Entries after “also recorded” stand apart in the source; their conditions may differ. Like-named read-outs stand apart in the source and are kept apart here.
Tests used:
BALB/c mice = assay: Copper cytotoxicity assessment in mice; type: in vivo, mouse; details: copper 0.2 and 0.5 μg/g, 5 times a week for 5 weeks
Description: To this aim, we injected a lower dose of copper (0.2 and 0.5 μg/g) 5 times a week for 5 weeks to a new series of BALB/c mice. We observed the mice every day, monitored their weight and followed their survival to evaluate copper toxicity.

HL60 cells [1] = type: cell-based, Human
HL60 cells [2] = type: cell-based, Human; remark: listed apart in the source
A20 cells [3] = assay: A20 cell viability; type: cell-based, mouse; details: 48 h; for Effect on A20 viability vs control: H2O2 experiment
Description: (§1) Cells (1×10^5 per well) were seeded in 96-wells round bottom plates (Falcon, Corning, reference: 353077) and incubated for 48 hours with different experimental conditions in an incubator at 37° C. 5% CO2. Two plates were prepared in parallel to measure respectively the H2O2 production and A20 cell viability.
(§2) H2O2 production, GSH production and cell viability were measured using the same protocols as above-described for […].
(§3) Conditions of Treatments and Related Experimentations: 1 Test H2O2— 1 Test GSH • H2O2 or GSH production and cell survival: As2O3 (1 μM) with CuCl2 at 0.5; 1; 2 and 4 μM.

[4] = system: C57BL6 mice splenic cells; type: cell-based, mouse
HL60 cells [5] = type: cell-based, Human; remark: listed apart in the source
[6] = system: chronic sclerodermatous Graft versus Host Disease
Treg and T17 balance = details: rheumatoid arthritis patients; Li et al. 2019; cited from earlier work
MRL/lpr mice = details: Bobé et al., Blood 2006; cited from earlier work
A20 cells [7] = assay: H2O2 production in A20 cultured cells; type: cell-based, mouse; details: 48 h, As2O3 at 1 μM, test 1
Description: as §1, §2, §3

caspase-1 = biological target: T1, caspase-1 (Homo sapiens, UniProt P29466); details: Maier et al., J. Immunol. 2014; cited from earlier work
T1 sequence (P29466 120-404): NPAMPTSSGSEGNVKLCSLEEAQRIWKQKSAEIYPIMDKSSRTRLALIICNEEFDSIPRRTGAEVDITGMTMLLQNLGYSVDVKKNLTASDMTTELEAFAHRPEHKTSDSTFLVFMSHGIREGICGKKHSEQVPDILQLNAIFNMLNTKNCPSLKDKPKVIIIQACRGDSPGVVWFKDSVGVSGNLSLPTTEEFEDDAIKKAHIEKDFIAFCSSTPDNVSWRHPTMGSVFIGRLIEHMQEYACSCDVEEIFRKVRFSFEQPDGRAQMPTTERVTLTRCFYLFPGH

A20 cells [8] = assay: GSH production in A20 cultured cells; type: cell-based, mouse; details: 48 h, As2O3 at 1 μM, test 1
Description: as §1, §2, §3

[9] = Allogeneic + As2O3 2.5 μg/g, 9 mice
[10] = Allogeneic + As2O3 5 μg/g, 5 mice

Compound: [Cl][Cu][Cl] [CuCl2, copper(II) chloride]
- Death after 5 weeks (BALB/c mice): no death
- Mean weights vs control group receiving PBS (BALB/c mice): similar
- Effect on the GSH production induced by As2O3 (HL60 cells [1]): reduce
- GSH Production: cations vs control (HL60 cells [1]): no significant effect; also recorded: Not significant
- Effect of AsI3 on H2O2 production: AsI3 + CuCl2 vs AsI3 (HL60 cells [2]): significantly increased
- Effect on the H2O2 production induced by As2O3 (HL60 cells [2]): significantly increases
- H2O2 Production: cations vs control (HL60 cells [2]): no significant effect; also recorded: Not significant
- Cell survival: As2O3 + cations vs As2O3 (A20 cells [3]; As2O3 1 μM (GSH experiment), CuCl2 concentration(s) giving a significant increase of viability, 1 test): 4 µM
- Cell proliferation: As2O3 + cations vs As2O3 ([4]; MLR, 48 h, As2O3 1 μM, cation concentration(s) giving a significant decrease of proliferation, test 1): 4 μM (test 1)
- Cell proliferation: As2O3 + cations vs As2O3 ([4]; MLR, 48 h, As2O3 1 μM, cation concentration(s) giving a significant decrease of proliferation, tests 1 and 2): 4 μM or 2 and 4
- Proliferation of C57BL6 spleen cells in the presence of AsI3: CuCl2 concentrations with significant decrease ([4]; MLR, 48 h, AsI3 1 μM, test 2): 4 µM
- Cell survival in presence of AsI3 (HL60 cells [5]): no effect
- Cell survival: cations vs control (HL60 cells [5]; HL60 cells, 48 h (GSH experiment, Example 4), concentration(s) giving a significant difference, tests 1 and 2): no significant effect; also recorded: Not significant
- Cell survival: cations vs control (HL60 cells [5]; HL60 cells, 48 h (H2O2 experiment), cation concentration(s) giving a statistically significant difference, tests 1 and 2): no real effect; also recorded: Not significant
- Cell survival: As2O3 + cations vs As2O3 (HL60 cells [5]; HL60 cells, 48 h, As2O3 1 μM (GSH experiment, Example 4), concentration(s) giving a significant difference, tests 1 and 2): no significant effect; also recorded: Not significant
- Cell survival: As2O3 + cations vs As2O3 (HL60 cells [5]; HL60 cells, 48 h, As2O3 1 μM (H2O2 experiment), cation concentration(s) giving a statistically significant difference, tests 1 and 2): no real effect; also recorded: Not significant
- Effect on HL60 survival in the presence of As2O3 (HL60 cells [5]; HL60 cells, 48 h, CuCl2 at 1 and 4 μM with As2O3 0.1-10 μM): no additional nor protective effect
- Mortality in the copper-treated groups ([6]; copper 2.5 or 10 μg/g i.p. 5 times a week, injections stopped at the end of day 4): significant loss of mice
- Mortality in the copper-treated groups ([6]; copper injected only twice a week from day 8 until the end of the 5 weeks): no more copper-treated mice died

Compound: O=S(=O)([O-])[O-].[Fe+2] [FeSO4]
- Cell proliferation: As2O3 + cations vs As2O3 [4]: does not have a significant effect
- Cell survival: As2O3 + cations vs As2O3 (HL60 cells [5]): no significant effect; also recorded: Not significant
- Cell survival: cations vs control (HL60 cells [5]): no significant effect; also recorded: Not significant

Compound: [Cl][Mn][Cl] [MnCl2]
- H2O2 Production: As2O3 + cations vs As2O3 (HL60 cells [2]): 1 µM
- H2O2 Production: cations vs control (HL60 cells [2]): 1 µM
- Cell survival: As2O3 + cations vs As2O3 (HL60 cells [5]): Not significant
- Cell survival: cations vs control (HL60 cells [5]): Not significant

Compound: O=S(=O)([O-])[O-].[Mn+2] [MnSO4]
- H2O2 Production: As2O3 + cations vs As2O3 (HL60 cells [2]): 0.25 µM
- Cell survival: As2O3 + cations vs As2O3 (HL60 cells [5]): no real effect; also recorded: Not significant

Compound: [Cl-].[Cl-].[Zn+2] [ZnCl2]
- H2O2 Production: As2O3 + cations vs As2O3 (HL60 cells [2]): Not significant
- Cell survival: As2O3 + cations vs As2O3 (HL60 cells [5]): no significant and reproducible effect; also recorded: Not significant
- Cell survival: cations vs control (HL60 cells [5]): Not significant

Compound: O=S(=O)([O-])[O-].[Zn+2] [ZnSO4]
- Cell survival: As2O3 + cations vs As2O3 (HL60 cells [5]): no significant and reproducible effect; also recorded: Not significant

Compound: Arsenic Trioxide [As2O3]
- Treg and T17 balance (Treg and T17 balance): improves
- Effect on GSH production vs control (HL60 cells [1]): significantly increases
- Effect on the production of H2O2 (HL60 cells [2]): not significant, but it increases at 5 μM
- Survival of MRL/lpr mice (MRL/lpr mice): significantly prolonged
- Effect on H2O2 production vs control (A20 cells [7]): significantly increased
- Effect on A20 cells viability vs control (A20 cells [3]; As2O3 at 1 μM, GSH experiment, test 1): significantly reduced
- Effect on A20 viability vs control (A20 cells [3]; As2O3 at 1 μM, test 1): reduced
- Effect on A20 viability vs control (A20 cells [3]; As2O3 at 1 μM, test 2): significantly reduced
- Inhibition of caspase-1 and the innate immune response (caspase-1): potent inhibitors
- Cell proliferation in the presence of mitogen [4]: completely inhibits
- Effect on GSH production vs control (A20 cells [8]): significantly increased
- Number of mice at the end (live mice) ([6]; Allogeneic + As2O3 2.5 μg/g i.p. 5 times a week for 5 weeks, 10 mice at the beginning): 9
- Ear thickness (vasculitis) ([6]; Allogeneic + As2O3 2.5 μg/g vs allogeneic): reduced
- Number of mice with alopecia [6, 9]: 3
- Percentage of mice with alopecia [6, 9]: 33%
- Number of mice at the end (live mice) ([6]; Allogeneic + As2O3 5 μg/g i.p. 5 times a week for 5 weeks, 7 mice at the beginning): 5
- Ear thickness (vasculitis) ([6]; Allogeneic + As2O3 5 μg/g vs allogeneic): decreased even more until reaching the same values as the ones of the syngeneic group
- Number of mice with alopecia [6, 10]: 1
- Percentage of mice with alopecia [6, 10]: 20%

— patent US20220226372A1 (priority 2019, published 2022)
